The text below walks through data of ChEMBL document CHEMBL1201862, “PubChem BioAssay data set” (2004).

Usually GI50 stands for the concentration at which growth is held to half of that of the control.

Among the test systems are M14; ACHN; LOX IMVI; SK-MEL-28; MDA-N; SNB-19; SF-295; HOP-62; SF-539; NCI-H23; TK-10; MDA-MB-231; NCI-H226; NCI-H522; BT-549; U-251; COLO 205; DU-145; UO-31; SK-MEL-5.
Holding throughout (assay): DTP human tumour cell line panel, 48 h

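How tested: cells in 96-well plates exposed to compound for 48 hours at five concentrations. GI50: concentration for 50% inhibition of growth.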 Active and inactive are the calls of the source. Cut-off read from the data, not from the text of the source: active = GI50 up to about 1.1 µM and inactive = higher.

In the case of `Cc1cc(N)ccc1/N=N\c1ccc(S(=O)(=O)CCOS(=O)(=O)O)cc1`, the GI50 in the experiment on M14 was 0.513 µM (active); with ACHN, 3.24 µM (inactive); in the experiment on LOX IMVI it was 0.343 µM (active); with SK-MEL-28, 1.69 µM (inactive); in the experiment on MDA-N, 0.282 µM (active); with SNB-19, 4.72 µM (inactive). Further, the GI50 in the experiment on SF-295 is 2.63 µM (inactive); in the experiment with HOP-62, 6.1 µM (inactive); in the experiment with SF-539, 2.46 µM (inactive); with NCI-H23, 0.7 µM (active); with TK-10, 14 µM (inactive); in the experiment with MDA-MB-231, 0.215 µM (active). The GI50 with NCI-H226 is 3.37 µM (inactive); with NCI-H522, 0.274 µM (active); with BT-549 it was 1.53 µM (inactive); with U-251, 3.05 µM (inactive); in the experiment on COLO 205, 2.07 µM (inactive); in the experiment with DU-145, 26 µM (inactive). Moreover, the GI50 in the experiment on UO-31 was 2 µM (inactive); with SK-MEL-5 it was 0.287 µM (active).

In the case of `N=c1c2sc3nc4ccccc4n3c2ncn1Cc1ccccc1`, the GI50 in the experiment with M14, in the experiment on ACHN, in the experiment on LOX IMVI, in the experiment on SK-MEL-28, in the experiment with MDA-N and in the experiment on SNB-19 was > 100 µM (inactive) throughout. Further, the GI50 with SF-295 was > 100 µM (inactive); in the experiment with HOP-62, > 100 µM (inactive); in the experiment with SF-539, > 100 µM (inactive); with NCI-H23, > 100 µM (inactive); with TK-10 it was 84.3 µM (inactive); in the experiment with MDA-MB-231, > 100 µM (inactive). Further, the GI50 in the experiment on NCI-H226, with NCI-H522, in the experiment with BT-549, in the experiment with U-251, with COLO 205 and in the experiment on DU-145 was > 100 µM (inactive) each time. Further, the GI50 with UO-31 and in the experiment with SK-MEL-5 was > 100 µM (inactive) in each case.

For the molecule `O=C(O)c1ccc(OCc2ccccc2)c(Cl)c1`, the GI50 with M14, with ACHN, in the experiment with LOX IMVI, in the experiment with SK-MEL-28, in the experiment with MDA-N and with SNB-19 was > 100 µM (inactive) each time. Further, the GI50 in the experiment on SF-295, in the experiment on HOP-62, with SF-539, in the experiment with NCI-H23, with TK-10 and in the experiment on MDA-MB-231 was > 100 µM (inactive) in each case. Also, the GI50 in the experiment with NCI-H226, with NCI-H522, with BT-549, in the experiment on U-251, in the experiment with COLO 205 and in the experiment on DU-145 was > 100 µM (inactive) each time. Moreover, the GI50 in the experiment with UO-31 and in the experiment on SK-MEL-5 was > 100 µM (inactive) in each case.

For the molecule `NNC(=O)Nc1nc2ccc(NN)cc2[nH]1`, the GI50 in the experiment with M14 was 31.5 µM (inactive); in the experiment on ACHN it was 29 µM (inactive); with LOX IMVI it was 43.1 µM (inactive); in the experiment on SK-MEL-28, 19 µM (inactive); in the experiment on MDA-N, 28.2 µM (inactive); with SNB-19, 58.5 µM (inactive). The GI50 in the experiment with SF-295 was 47.2 µM (inactive); in the experiment with HOP-62 it was 44.4 µM (inactive); with SF-539, 12.6 µM (inactive); in the experiment on NCI-H23 it was 44.1 µM (inactive); in the experiment on TK-10, 36 µM (inactive); in the experiment on MDA-MB-231, 51.9 µM (inactive). The GI50 in the experiment with NCI-H226 was 20.2 µM (inactive); in the experiment on NCI-H522, 29.6 µM (inactive); in the experiment with BT-549, 24 µM (inactive); in the experiment with U-251, 37 µM (inactive); with COLO 205 it was 16.5 µM (inactive); with DU-145 it was 97.7 µM (inactive). In addition, the GI50 with UO-31 was 60.5 µM (inactive); with SK-MEL-5, 22.9 µM (inactive).

With `NCCN(CCN)/[N+]([O-])=N/O`, the GI50 in the experiment with M14 was 72.8 µM (inactive); with ACHN, > 100 µM (inactive); in the experiment on LOX IMVI it was > 100 µM (inactive); in the experiment with SK-MEL-28, > 100 µM (inactive); in the experiment with MDA-N it was > 100 µM (inactive); in the experiment on SNB-19, > 100 µM (inactive). Also, the GI50 in the experiment with SF-295, with HOP-62, with SF-539, with NCI-H23, in the experiment on TK-10 and in the experiment with MDA-MB-231 was > 100 µM (inactive) throughout. The GI50 in the experiment on NCI-H226 was > 100 µM (inactive); with NCI-H522 it was 93.3 µM (inactive); in the experiment with BT-549 it was > 100 µM (inactive); in the experiment on U-251, > 100 µM (inactive); in the experiment on COLO 205, > 100 µM (inactive); in the experiment on DU-145 it was > 100 µM (inactive). The GI50 in the experiment with UO-31 and in the experiment on SK-MEL-5 was > 100 µM (inactive) in each case.

On to `O=C1CCCCCCCCCCC1CN1CCCC1` (stereo not given), for which the GI50 is 20.1 µM (inactive) with M14; 54.8 µM (inactive) with ACHN; 19.4 µM (inactive) with LOX IMVI; 22.1 µM (inactive) in the experiment with SK-MEL-28; 33 µM (inactive) in the experiment on MDA-N; > 100 µM (inactive) with SNB-19. Moreover, the GI50 in the experiment on SF-295 is 29.9 µM (inactive); in the experiment with HOP-62, 17.1 µM (inactive); in the experiment with SF-539 it was 22.1 µM (inactive); with NCI-H23, 36.1 µM (inactive); with TK-10, 32.3 µM (inactive); in the experiment on MDA-MB-231, 47.9 µM (inactive). In addition, the GI50 in the experiment with NCI-H226 is 15.4 µM (inactive); with NCI-H522, 39.3 µM (inactive); with BT-549, 31.4 µM (inactive); in the experiment with U-251, 26.7 µM (inactive); in the experiment on COLO 205 it was 20.1 µM (inactive); with DU-145 it was 29.9 µM (inactive). The GI50 was 35.1 µM (inactive) in the experiment with UO-31 and 17.6 µM (inactive) in the experiment with SK-MEL-5.

Turning to `O=C1c2cccnc2C(=O)C2C3C=CC(C3)C12` (stereo not given), the GI50 is 13.3 µM (inactive) with M14; 7.53 µM (inactive) in the experiment on ACHN; 3.66 µM (inactive) in the experiment with LOX IMVI; 15.2 µM (inactive) with SK-MEL-28; 3.61 µM (inactive) in the experiment on MDA-N; 15 µM (inactive) in the experiment on SNB-19. Also, the GI50 in the experiment with SF-295 was 12.6 µM (inactive); in the experiment with HOP-62, 6.68 µM (inactive); in the experiment with SF-539, 2.4 µM (inactive); in the experiment with NCI-H23, 12.1 µM (inactive); in the experiment on TK-10 it was 18 µM (inactive); in the experiment on MDA-MB-231, 2.78 µM (inactive). Moreover, the GI50 is 13 µM (inactive) with NCI-H226; 3.27 µM (inactive) in the experiment with NCI-H522; 11.5 µM (inactive) with BT-549; 4.23 µM (inactive) with U-251; 13.3 µM (inactive) in the experiment with COLO 205; 6.92 µM (inactive) with DU-145. Further, the GI50 with UO-31 is 11.8 µM (inactive); in the experiment on SK-MEL-5 it was 10.8 µM (inactive).
